PubChem BioAssay AID248 (DTP/NCI, 2004)
Several values for one entry are separate records, joined by “and”; a condition that tells them apart may be missing. Equal entries are not always repeated. Toxic doses and inconclusive results are not listed. Rule as the data show it: active = T/C of 150% or more; inactive = T/C below 125%.

Test system: L1210 leukemia ip in BDF1 mice, survival T/C
Experiment: NCI In Vivo Anticancer Drug Screen. Data for tumor model L1210 Leukemia (intraperitoneal) in B6D2F1 (BDF1) mice
Conditions: endpoint: mean survival time, higher = longer survival
Summary of the method: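 Mice bearing the transplanted tumor received compound or vehicle. Survival of the treated group was divided by that of the vehicle-treated control group to give the ratio.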

[1] = dose: 100.0 mg/kg/injection, schedule: Q01DX009 (ip), vehicle: Klucel (hydroxypropylcellulose) (HPC)
[2] = dose: 100.0 mg/kg/injection, schedule: Q04DX003 (ip), vehicle: Klucel (hydroxypropylcellulose) (HPC)
[3] = dose: 200.0 mg/kg/injection, schedule: Q01DX009 (ip), vehicle: Klucel (hydroxypropylcellulose) (HPC)
[4] = dose: 200.0 mg/kg/injection, schedule: Q04DX003 (ip), vehicle: Klucel (hydroxypropylcellulose) (HPC)
[5] = dose: 400.0 mg/kg/injection, schedule: Q04DX003 (ip), vehicle: Klucel (hydroxypropylcellulose) (HPC)
[6] = dose: 25.0 mg/kg/injection, schedule: Q04DX003 (ip), vehicle: Klucel (hydroxypropylcellulose) (HPC)
[7] = dose: 50.0 mg/kg/injection, schedule: Q04DX003 (ip), vehicle: Klucel (hydroxypropylcellulose) (HPC)
[8] = dose: 100.0 mg/kg/injection, schedule: Q01DX001 (ip), vehicle: carboxymethylcellulose (CMC)
[9] = dose: 100.0 mg/kg/injection, schedule: Q01DX001 (ip), vehicle: Klucel (hydroxypropylcellulose) (HPC)
[10] = dose: 200.0 mg/kg/injection, schedule: Q01DX001 (ip), vehicle: Klucel (hydroxypropylcellulose) (HPC)
[11] = dose: 400.0 mg/kg/injection, schedule: Q01DX001 (ip), vehicle: Klucel (hydroxypropylcellulose) (HPC)
[12] = dose: 100.0 mg/kg/injection, schedule: Q04DX003 (ip), vehicle: saline with Tween-80
[13] = dose: 200.0 mg/kg/injection, schedule: Q04DX003 (ip), vehicle: saline with Tween-80
[14] = dose: 400.0 mg/kg/injection, schedule: Q04DX003 (ip), vehicle: saline with Tween-80
[15] = dose: 100.0 mg/kg/injection, schedule: Q01DX001 (ip), vehicle: saline
[16] = dose: 200.0 mg/kg/injection, schedule: Q01DX001 (ip), vehicle: saline

Measured: T/C

c1ccc(C2C(c3ccccc3)N2CCCN2CCOCC2)cc1 (stereo not given)
inactive: dose: 50.0 mg/kg/injection, schedule: Q01DX009 (ip), vehicle: Klucel (hydroxypropylcellulose) (HPC) 106 % of control | [1] 103 % of control | [2] 88 % of control | [3] 107 % of control | [4] 93 % of control

COC1=NS(=O)(=O)CC(N2C(=O)CCC2=O)O1 (stereo not given)
inactive: [2] 98 % of control | [4] 109 % of control | [5] 101 % of control

CCCC(CNC1CCCCC1)OC(=O)c1ccc(N)cc1 (stereo not given)
inactive: dose: 75.0 mg/kg/injection, schedule: Q01DX001 (ip), vehicle: other 96 % of control

O=S(=O)(F)c1ccccc1S(=O)(=O)Cl
inactive: [6] 97 % of control | [7] 92 % of control | [8] 95 % of control | [2] 92 % of control

O=C1C=C(Br)C(=O)C1(Br)Br
inactive: dose: 75.0 mg/kg/injection, schedule: Q01DX001 (sc), vehicle: olive oil, sesame oil, peanut oil 117 % of control

CN(C)N=Nc1nn(C2OC(CO)C(O)C2O)cc1C(N)=O (stereo not given)
inactive: dose: 100.0 mg/kg/injection, schedule: Q01DX005 (ip), vehicle: saline 121 % of control | dose: 200.0 mg/kg/injection, schedule: Q01DX005 (ip), vehicle: saline 113 % of control

Cc1cc(NC(=O)SCCOC(=O)COc2ccc(Cl)cc2)ccc1Cl
inactive: dose: 100.0 mg/kg/injection, schedule: Q01DX009 (ip), vehicle: saline with Tween-80 94 % of control | dose: 200.0 mg/kg/injection, schedule: Q01DX009 (ip), vehicle: saline with Tween-80 88 % of control | dose: 400.0 mg/kg/injection, schedule: Q01DX009 (ip), vehicle: saline with Tween-80 90 % of control

CN(C)C1C(=O)C(C(=O)NCNC(CCS)C(=O)O)=C(O)C2(O)C(=O)C3=C(O)c4c(O)cccc4C(C)(O)C3CC12 (stereo not given)
inactive: dose: 20.0 mg/kg/injection, schedule: Q01DX Z (ip), vehicle: saline 104 % of control | dose: 40.0 mg/kg/injection, schedule: Q01DX Z (ip), vehicle: saline 98 % of control | dose: 80.0 mg/kg/injection, schedule: Q01DX Z (ip), vehicle: saline 96 % of control and 100 % of control | dose: 160.0 mg/kg/injection, schedule: Q01DX Z (ip), vehicle: saline 98 % of control and 101 % of control | dose: 320.0 mg/kg/injection, schedule: Q01DX Z (ip), vehicle: saline 100 % of control

N/C(=N\N=C\c1ccccn1)c1ccccn1
inactive: dose: 10.0 mg/kg/injection, schedule: Q01DX001 (ip), vehicle: water 93 % of control

C[N+](C)(C)CCOC(=O)c1ccccc1CBr
inactive: dose: 1.5 mg/kg/injection, schedule: Q04DX002 (ip), vehicle: other 98 % of control | dose: 3.0 mg/kg/injection, schedule: Q04DX002 (ip), vehicle: other 90 % of control | dose: 3.13 mg/kg/injection, schedule: Q01DX009 (ip), vehicle: saline 101 % of control | dose: 6.0 mg/kg/injection, schedule: Q04DX002 (ip), vehicle: other 105 % of control | dose: 6.25 mg/kg/injection, schedule: Q01DX009 (ip), vehicle: saline 97 % of control | dose: 6.25 mg/kg/injection, schedule: Q04DX003 (ip), vehicle: saline 105 % of control | dose: 12.5 mg/kg/injection, schedule: Q04DX003 (ip), vehicle: saline 91 % of control

COC(=O)C1(C(=O)OC)C2CCCCC21 (stereo not given)
inactive: [9] 90 % of control | [2] 96 % of control | [10] 103 % of control | [4] 104 % of control | [11] 98 % of control | [5] 98 % of control

CCCCCC(=O)NCC(=O)O
inactive: [12] 94 % of control | [13] 97 % of control | [14] 94 % of control

O=C(c1ccccc1)c1ccc(Br)cc1O
inactive: [8] 105 % of control | dose: 200.0 mg/kg/injection, schedule: Q01DX001 (ip), vehicle: carboxymethylcellulose (CMC) 98 % of control | dose: 400.0 mg/kg/injection, schedule: Q01DX001 (ip), vehicle: carboxymethylcellulose (CMC) 100 % of control

COC(=O)C(=CC(Cl)(Cl)Cl)C(=O)OC
inactive: dose: 6.2 mg/kg/injection, schedule: Q01DX009 (ip), vehicle: Klucel (hydroxypropylcellulose) (HPC) 102 % of control | dose: 12.5 mg/kg/injection, schedule: Q01DX009 (ip), vehicle: Klucel (hydroxypropylcellulose) (HPC) 96 % of control | dose: 25.0 mg/kg/injection, schedule: Q01DX009 (ip), vehicle: Klucel (hydroxypropylcellulose) (HPC) 96 % of control | [6] 102 % of control | [7] 97 % of control | [9] 101 % of control | [2] 97 % of control | [10] 105 % of control | [4] 102 % of control

Cc1ccc(S(=O)(=O)OC2C(SCc3ccccc3)OCC(OC(=O)c3ccccc3)C2OC(=O)c2ccccc2)cc1 (stereo not given)
inactive: [15] 93 % of control | [16] 88 % of control | dose: 400.0 mg/kg/injection, schedule: Q01DX001 (ip), vehicle: saline 88 % of control

COc1ccc(C(OCC2OC(n3nnc4c(=O)[nH]c(N)nc43)CC2OC(C)=O)(c2ccccc2)c2ccc(OC)cc2)cc1 (stereo not given)
inactive: dose: 12.5 mg/kg/injection, schedule: Q01DX001 (ip), vehicle: Klucel (hydroxypropylcellulose) (HPC) 103 % of control | dose: 25.0 mg/kg/injection, schedule: Q01DX001 (ip), vehicle: Klucel (hydroxypropylcellulose) (HPC) 93 % of control | dose: 50.0 mg/kg/injection, schedule: Q01DX001 (ip), vehicle: Klucel (hydroxypropylcellulose) (HPC) 97 % of control | [11] 100 % of control

O=C(COc1ccc(Cl)cc1Cl)OCCOc1ccc(Cl)cc1
inactive: dose: 100.0 mg/kg/injection, schedule: Q04DX002 (ip), vehicle: Klucel (hydroxypropylcellulose) (HPC) 97 % of control | dose: 200.0 mg/kg/injection, schedule: Q04DX002 (ip), vehicle: Klucel (hydroxypropylcellulose) (HPC) 97 % of control | dose: 400.0 mg/kg/injection, schedule: Q04DX002 (ip), vehicle: Klucel (hydroxypropylcellulose) (HPC) 118 % of control

C=CCNC(=O)/C=C/C(=O)NCC=C
inactive: dose: 25.0 mg/kg/injection, schedule: Q04DX003 (ip), vehicle: saline with Tween-80 97 % of control | dose: 50.0 mg/kg/injection, schedule: Q04DX003 (ip), vehicle: saline with Tween-80 97 % of control | [12] 89 % of control

Nc1ncnc2sc(SCc3ccccc3)nc12
inactive: [12] 107 % of control | [13] 102 % of control | [14] 100 % of control

CNS(=O)(=O)c1ccc(NC(=O)C(Cl)(Cl)Cl)cc1
inactive: dose: 100.0 mg/kg/injection, schedule: Q01DX001 (ip), vehicle: other 105 % of control | [1] 102 % of control | dose: 100.0 mg/kg/injection, schedule: Q04DX003 (ip), vehicle: other 101 % of control | dose: 200.0 mg/kg/injection, schedule: Q01DX001 (ip), vehicle: other 104 % of control | [3] 95 % of control | dose: 200.0 mg/kg/injection, schedule: Q04DX003 (ip), vehicle: other 101 % of control | dose: 400.0 mg/kg/injection, schedule: Q01DX001 (ip), vehicle: other 104 % of control | dose: 400.0 mg/kg/injection, schedule: Q01DX009 (ip), vehicle: Klucel (hydroxypropylcellulose) (HPC) 96 % of control | dose: 400.0 mg/kg/injection, schedule: Q04DX003 (ip), vehicle: other 98 % of control

COc1ccc2c3c1OC1C(O)=CCC4[C@H](C2)N(C)CC[C@@]314 (stereo not given in full)
inactive: [15] 95 % of control | [16] 106 % of control

Cc1cc(-c2ccccc2O)nc(N)n1
inactive: dose: 100.0 mg/kg/injection, schedule: Q04DX002 (ip), vehicle: saline 90 % of control | dose: 200.0 mg/kg/injection, schedule: Q04DX002 (ip), vehicle: saline 94 % of control | dose: 400.0 mg/kg/injection, schedule: Q04DX002 (ip), vehicle: saline 90 % of control

CCC1C(=O)CC(C(=O)O)C1C(=O)O (stereo not given)
inactive: dose: 100.0 mg/kg/injection, schedule: Q04DX002 (ip), vehicle: saline with Tween-80 100 % of control | dose: 200.0 mg/kg/injection, schedule: Q04DX002 (ip), vehicle: saline with Tween-80 96 % of control
